In patent US8318771B2, “Method of treatment of nephrogenic diabetes insipidus” (Universita' Degli Studi di Bari, priority 2010, dated 2012):

What was measured:
MCD4 cells [1] = assay: Surface protein biotinylation of apical membrane AQP2 in MCD4 cells (densitometric analysis, FIG. 1); type: cell-based; conditions: control set to 100%
Text: (§1) In MCD4 cells in the absence of lovastatin in the culture medium (-Lovastatin) and in control (ctr) conditions, the AQP2 is stored in intracellular vesicles. […] The FK mimes the effect of the vasopressin in in vitro experiments. The same phenomenon occurs in the tubule in vivo following release into the circulation of vasopressin. […] The lovastatin therefore mimes the effect of the FK or the stimulation with vasopressin. […] It is possible to quantize the effect of the treatment with lovastatin in terms of accumulation of AQP2 on the apical membrane by means of surface protein biotinylation experiments.
In the absence of lovastatin, only a modest amount of AQP2 is expressed on the apical membrane of the MCD4 cells, and therefore biotinylated, in control cells. The treatment with FK determines an increase of approximately 3 times in the amount of AQP2 expressed on the apical membrane.

MCD4 cells [2] = assay: AQP2 localisation on the apical membrane of MCD4 renal cells in culture; type: cell-based
Method: The MCD4 cells, which are in culture and derive from main cells of the renal collecting duct, were treated experimentally with lovastatin. In the cell model, as in the renal tubule in vivo, the presence of AQP2 on the membrane depends on the presence of vasopressin.
as §1
In vitro tests performed in MCD4 renal cells indicate that the minimum treatment time with statins able to produce an evident shift of the AQP2 in the cells is 6 hours.

`C=C[C@@]1(C)CC(=O)[C@]2(O)[C@@]3(C)[C@@H](O)CCC(C)(C)[C@@H]3[C@H](O)[C@H](OC(C)=O)[C@@]2(C)O1` [forskolin] was tested, and the “increase in the amount of AQP2 expressed on the apical membrane (biotinylated)” value (MCD4 cells [1]; treatment with FK) was “approximately 3 times”.
For `CC(C)c1nc(N(C)S(C)(=O)=O)nc(-c2ccc(F)cc2)c1/C=C/[C@@H](O)C[C@@H](O)CC(=O)O` [rosuvastatin], the “effect produced by the lovastatin (AQP2 accumulation on the apical membrane) induced by other statins” value (MCD4 cells [2]; MCD4 cells, hydrosoluble formulation) was “induced also”.
With `CC[C@H](C)C(=O)O[C@H]1C[C@@H](C)C=C2C=C[C@H](C)[C@H](CC[C@@H]3C[C@@H](O)CC(=O)O3)[C@H]21` [lovastatin] the “increase of AQP2 present on the apical membrane (biotinylated)” value (MCD4 cells [1]; 72 h with lovastatin alone) was “comparable to the one obtained by the FK”, the “increase in the AQP2 on the apical membrane” value (MCD4 cells [2]; MCD4 cells, lovastatin in the medium plus treatment with FK) was “even more evident” and the “AQP2 accumulation on the apical membrane” value (MCD4 cells [2]; MCD4 control (ctr) cells, 5 μM lovastatin in the culture medium for 72 h) was “accumulate a considerable amount of AQP2 on the apical membrane”.
